Measured values as given in BindingDB's records for doi:10.1021/jm00084a013 (Upjohn Laboratories, 1992).

Biological target: not listed separately
Experiment: Compound was evaluated for its ability to displace [3H]DPAT from 5-HT1A receptor in homogenates of bovine hippocampus
With `CCCN(CCC)C1Cc2cccc3c2n(c(=O)n3C)C1` (stereo not given) the Ki was 124 nM.
For `CCCCNC1Cc2cccc3[nH]c(=O)n(c23)C1` (stereo not given), the Ki was > 1000 nM.

Biological target: 5-hydroxytryptamine receptor 1A (Bos taurus)
Experiment: Ability to displace [3H]-DPAT from 5-hydroxytryptamine 1A receptor in homogenates of bovine hippocampus.
In the case of `CCCN(CCC)C1Cc2cccc3c2N(C1)C(=O)C3` (stereo not given), the Ki is reported as 108 nM.
Compound `CCCN(CCC)C1Cc2cccc3c2N(C1)C(=O)CC3` (stereo not given) has a Ki of 2.4 nM.
In the case of `CCCN(CCC)C1Cc2cccc3oc(=O)n(c23)C1` (stereo not given), the Ki is reported as > 1000 nM.
With `CCCN(CCC)C1Cc2cccc3nc(SC)n(c23)C1` (stereo not given) the Ki was 173 nM.
`CCCN(CCC)C1Cc2cccc3ccn(c23)C1` (stereo not given) gave a Ki of 252 nM.
Work on `O=c1[nH]c2cccc3c2n1CC(N(CC1CC1)CC1CC1)C3` (stereo not given) yielded a Ki of 95 nM.
Compound `CCCN(CCC)C1Cc2cccc3c2N(CCC3)C1` (stereo not given) has a Ki of 105 nM.
In the case of `CCCN(CCC)C1Cc2cccc3[nH]c(=O)c(=O)n(c23)C1` (stereo not given), the Ki is reported as > 1000 nM.
Work on `CCCN(CCC)C1Cc2cccc3nc(C)n(c23)C1` (stereo not given) yielded a Ki of 4490 nM.
In the case of `CCCN(CCC)C1Cc2cccc3c2N(C1)C(=O)CN3` (stereo not given), the Ki is reported as 49 nM.
Work on `CCCN(CCC)C1Cc2cccc3c2N(CC3)C1` (stereo not given) yielded a Ki of 13 nM.
For `O=c1[nH]c2cccc3c2n1CC(NCC1CC1)C3` (stereo not given), the Ki was 84 nM.
For `CCCN(CCC)C1Cc2cccc3ncn(c23)C1` (stereo not given), the Ki was 827 nM.
